Laboratory results taken from ChEMBL document CHEMBL1821662 (Bioorg Med Chem Lett, 2011).

Assays:
[1] = target: T1, Aurora kinase B (Homo sapiens, UniProt Q96GD4); assay: Inhibition of Aurora B kinase assessed as reduction in histone H3 phosphorylation in human HCT116 cells; type: cell-based, HCT-116
[2] = target: T2, Aurora kinase C (Homo sapiens, UniProt Q9UQB9); assay: Binding affinity to Aurora C kinase catalytic domain by competitive binding assay
T2 sequence (Q9UQB9 whole entry): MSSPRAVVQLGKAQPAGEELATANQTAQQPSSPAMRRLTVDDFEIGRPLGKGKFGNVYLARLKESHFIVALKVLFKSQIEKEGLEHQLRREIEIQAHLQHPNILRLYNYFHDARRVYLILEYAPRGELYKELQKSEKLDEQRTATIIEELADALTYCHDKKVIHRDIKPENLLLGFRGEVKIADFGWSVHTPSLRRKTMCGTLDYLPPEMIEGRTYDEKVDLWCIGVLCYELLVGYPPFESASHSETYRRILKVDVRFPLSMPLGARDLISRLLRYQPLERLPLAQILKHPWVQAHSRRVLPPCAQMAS

[3] = target: T3, Aurora kinase A (Homo sapiens, UniProt O14965); assay: Binding affinity to Aurora A kinase catalytic domain by competitive binding assay
T3 sequence (O14965 whole entry): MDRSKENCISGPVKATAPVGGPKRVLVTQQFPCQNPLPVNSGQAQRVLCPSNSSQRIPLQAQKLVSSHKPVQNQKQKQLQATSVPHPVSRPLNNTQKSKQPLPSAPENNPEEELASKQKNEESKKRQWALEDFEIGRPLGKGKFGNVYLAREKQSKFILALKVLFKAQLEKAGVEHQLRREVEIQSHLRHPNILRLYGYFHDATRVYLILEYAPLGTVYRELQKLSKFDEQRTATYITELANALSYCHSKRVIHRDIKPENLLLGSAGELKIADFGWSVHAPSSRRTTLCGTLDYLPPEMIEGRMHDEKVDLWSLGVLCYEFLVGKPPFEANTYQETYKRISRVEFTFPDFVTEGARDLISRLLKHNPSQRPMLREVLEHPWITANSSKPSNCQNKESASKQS

[4] = tested on: HCT-116; assay: Antiproliferative activity against human HCT116 cells; type: functional, cell-based
[5] = target: T1, Aurora kinase B; assay: Binding affinity to Aurora B kinase catalytic domain by competitive binding assay
[6] = Clearance in Sprague-Dawley rat at 1 mg/kg, iv; type: ADME, organism-based; design: dose 1 mg/kg, route intravenous; details: in vivo
[7] = AUC in Sprague-Dawley rat at 1 mg/kg, iv; type: ADME, organism-based; design: dose 1 mg/kg, route intravenous; details: plasma
[8] = Half life in Sprague-Dawley rat at 1 mg/kg, iv; type: ADME, organism-based; design: dose 1 mg/kg, route intravenous; details: in vivo
[9] = Volume of distribution in Sprague-Dawley rat at 1 mg/kg, iv; type: ADME, organism-based; design: dose 1 mg/kg, route intravenous; details: in vivo
[10] = tested on: HCT-116; assay: Antitumor activity against human HCT116 cells xenografted in nude mouse assessed as tumor suppression dose administered intraperitoneally twice daily; type: functional, cell-based
[11] = AUC in SCID mouse at 60 mg/kg, ip; type: ADME, organism-based; design: dose 60 mg/kg, route intraperitoneal; details: plasma
[12] = tested on: Mus musculus; assay: Toxicity in nude mouse xenografted with human HCT116 cells assessed as body weight loss at 37.5 mg/kg, ip BID for 8 days; type: organism-based, HCT-116; design: dose 37.5 mg/kg, route intraperitoneal; details: in vivo, 192 h

T1 sequence (Q96GD4 whole entry, the tested form may be a part): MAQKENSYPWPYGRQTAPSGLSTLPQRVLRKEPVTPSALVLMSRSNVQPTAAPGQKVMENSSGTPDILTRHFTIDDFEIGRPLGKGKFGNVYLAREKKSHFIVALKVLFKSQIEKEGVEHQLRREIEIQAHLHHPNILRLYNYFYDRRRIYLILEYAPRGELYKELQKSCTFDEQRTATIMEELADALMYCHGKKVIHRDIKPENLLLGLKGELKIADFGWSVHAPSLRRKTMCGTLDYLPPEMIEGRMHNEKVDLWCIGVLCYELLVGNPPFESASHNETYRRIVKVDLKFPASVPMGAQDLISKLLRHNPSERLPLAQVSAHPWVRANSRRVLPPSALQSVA

Structure (SMILES)	IC50 [1]	Kd [2]	Kd [3]	IC50 [4]	Kd [5]	clearance [6]	AUC [7]	half-life [8]	Vd [9]	Activity [10]	AUC [11]	Activity [12]
Cc1cc(Nc2nc(Sc3ccc(NC(=O)C4CC4)cc3)nn3cc(NC(=O)CN4CCCC4)cc23)n[nH]1	828 nM	13 nM	23 nM	536 nM	49 nM	–	–	–	–	–	–	–
Cc1cc(Nc2nc(Sc3ccc(NC(=O)CN(C)C)cc3)nn3cccc23)n[nH]1	293 nM	5 nM	31 nM	370 nM	8 nM	–	–	–	–	–	–	–
Cc1cc(Nc2nc(Sc3ccc(NC(=O)CN4CCC[C@H]4CO)cc3)nn3cccc23)n[nH]1	146 nM	1 nM	14 nM	148 nM	4 nM	–	–	–	–	–	–	–
Cc1cc(Nc2nc(Sc3ccc(NC(=O)CN4C[C@H](OC(C)(C)C)C[C@@H]4CO)cc3)nn3cccc23)n[nH]1	2490 nM	–	301 nM	2390 nM	69 nM	–	–	–	–	–	–	–
Cc1cc(Nc2nc(Sc3ccc(NC(=O)C4CC4)cc3)nn3cc(NC(=O)CN4CCOCC4)cc23)n[nH]1	420 nM	3 nM	7 nM	160 nM	9 nM	–	–	–	–	–	–	–
Cc1cc(Nc2nc(Sc3ccc(NC(=O)CN4C[C@H]5C[C@H]5[C@H]4CO)cc3)nn3cccc23)n[nH]1	179 nM	–	17 nM	203 nM	15 nM	–	–	–	–	–	–	–
Cc1cc(Nc2nc(Sc3ccc(NC(=O)CN4C[C@H](Oc5ccc(F)cc5F)[C@@H](O)C4)cc3)nn3cccc23)n[nH]1	58 nM	–	13 nM	5 nM	17 nM	–	–	–	–	–	–	–
Cc1cc(Nc2nc(Sc3ccc(NC(=O)CN4CC(F)(F)C[C@H]4CO)cc3)nn3cccc23)n[nH]1	29 nM	2 nM	8 nM	25 nM	5 nM	–	–	–	–	–	–	–
Cc1cc(Nc2nc(Sc3ccc(NC(=O)C4CC4)cc3)nn3cc(NC(=O)CCN4CCCCC4)cc23)n[nH]1	850 nM	10 nM	38 nM	101 nM	37 nM	–	–	–	–	–	–	–
Cc1cc(Nc2nc(Sc3ccc(NC(=O)CN4C[C@@H](O)[C@@H](Oc5ccc(F)cc5)C4)cc3)nn3cccc23)n[nH]1	84 nM	–	7 nM	9 nM	8 nM	–	–	–	–	–	–	–
Cc1cc(Nc2cc(N3CCN(C)CC3)nc(Sc3ccc(NC(=O)C4CC4)cc3)n2)n[nH]1 [TOZASERTIB]	–	–	–	28 nM	–	–	–	–	–	–	–	–
Cc1cc(Nc2nc(Sc3ccc(NC(=O)CN4C[C@H](Oc5ccc(F)cc5)C[C@H]4CO)cc3)nn3cccc23)n[nH]1	78 nM	–	53 nM	24 nM	21 nM	–	–	–	–	–	–	–
CCC(C)(C)O[C@H]1CN(CC(=O)Nc2ccc(Sc3nc(Nc4cc(C)[nH]n4)c4cccn4n3)cc2)C[C@@H]1O	28 nM	–	8 nM	9 nM	4 nM	–	–	–	–	–	–	–
Cc1cc(Nc2nc(Sc3ccc(NC(=O)CN4C[C@H](OC(C)(C)C)[C@@H](O)C4)cc3)nn3cccc23)n[nH]1	16 nM	–	12 nM	4 nM	5 nM	45 mL/min/kg	0.644 µM·h	11.2 h	18.3 L/kg	–	–	–
Cc1cc(Nc2nc(Sc3ccc(NC(=O)CN4C[C@H](OC5CCCC5)[C@@H](O)C4)cc3)nn3cccc23)n[nH]1	23 nM	–	11 nM	6 nM	4 nM	–	–	–	–	–	–	–
Cc1cc(Nc2nc(Sc3ccc(NC(=O)CN4C[C@H](OC(C)C)[C@@H](O)C4)cc3)nn3cccc23)n[nH]1	23 nM	–	8 nM	10 nM	4 nM	–	–	–	–	–	–	–
Cc1cc(Nc2nc(Sc3ccc(NC(=O)CN4CC(=NO)[C@@H](OC(C)(C)C)C4)cc3)nn3cccc23)n[nH]1 (mixture of isomers)	28 nM	–	9 nM	8 nM	5 nM	–	–	–	–	–	–	–
Cc1cc(Nc2nc(Sc3ccc(NC(=O)CN4C[C@H](O)C[C@H]4CO)cc3)nn3cccc23)n[nH]1	637 nM	–	58 nM	596 nM	15 nM	–	–	–	–	–	–	–
Cc1cc(Nc2nc(Sc3ccc(NC(=O)C4CC4)cc3)nn3cccc23)n[nH]1	431 nM	4 nM	12 nM	345 nM	20 nM	28.5 mL/min/kg	2.34 µM·h	10.8 h	2.15 L/kg	–	–	–

Structure (SMILES)	IC50 [1]	Kd [2]	Kd [3]	IC50 [4]	Kd [5]	clearance [6]	AUC [7]	half-life [8]	Vd [9]	Activity [10]	AUC [11]	Activity [12]
Cc1cc(Nc2nc(Sc3ccc(NC(=O)CN4C[C@H](F)C[C@H]4CO)cc3)nn3cccc23)n[nH]1	91 nM	–	15 nM	104 nM	9 nM	–	–	–	–	–	–	–
Cc1cc(Nc2nc(Sc3ccc(NC(=O)C4CC4)cc3)nn3cc(NC(=O)CN4CCC[C@@H]4CO)cc23)n[nH]1	6300 nM	80 nM	10 nM	536 nM	16 nM	–	–	–	–	–	–	–
Cc1cc(Nc2nc(Sc3ccc(NC(=O)CN4C[C@H](OCC5CC5)[C@@H](O)C4)cc3)nn3cccc23)n[nH]1	23 nM	–	7 nM	10 nM	2 nM	–	–	–	–	–	–	–
Cc1cc(Nc2nc(Sc3ccc(NC(=O)CN4C[C@H](Oc5cccc(F)c5)[C@@H](O)C4)cc3)nn3cccc23)n[nH]1	51 nM	–	17 nM	7 nM	10 nM	–	–	–	–	–	–	–
Cc1cc(Nc2nc(Sc3ccc(NC(=O)CN4C[C@H](N)C[C@H]4CO)cc3)nn3cccc23)n[nH]1	15000 nM	–	381 nM	4700 nM	144 nM	–	–	–	–	–	–	–
Cc1cc(Nc2nc(Sc3ccc(NC(=O)C4CC4)cc3)nn3cc(NC(=O)N4CCN(C)CC4)cc23)n[nH]1	190 nM	5 nM	7 nM	75 nM	4 nM	53.3 mL/min/kg	0.757 µM·h	8.66 h	5.86 L/kg	–	–	–
Cc1cc(Nc2nc(Sc3ccc(NC(=O)CN4C[C@H](Oc5ccc(F)cc5)[C@@H](O)C4)cc3)nn3cccc23)n[nH]1	44 nM	–	15 nM	5 nM	8 nM	25.2 mL/min/kg	1.17 µM·h	3.36 h	2.93 L/kg	Dose-dependent effect	47.5 µM·h	> 20%
Cc1cc(Nc2nc(Sc3ccc(NC(=O)CN4C[C@H](OC(C)(C)C)C[C@H]4CO)cc3)nn3cccc23)n[nH]1	15 nM	2 nM	9 nM	8 nM	8 nM	52.2 mL/min/kg	0.581 µM·h	15.4 h	9.77 L/kg	–	–	–
Cc1cc(Nc2nc(Sc3ccc(NC(=O)CNC4CC4)cc3)nn3cccc23)n[nH]1	288 nM	6 nM	32 nM	364 nM	41 nM	–	–	–	–	–	–	–
Cc1cc(Nc2nc(Sc3ccc(NC(=O)CN4CCOCC4)cc3)nn3cccc23)n[nH]1	1830 nM	17 nM	85 nM	1840 nM	41 nM	–	–	–	–	–	–	–
Cc1cc(Nc2nc(Sc3ccc(NC(=O)CN4C[C@H](Oc5cc(F)cc(F)c5)[C@@H](O)C4)cc3)nn3cccc23)n[nH]1	51 nM	–	26 nM	7 nM	21 nM	–	–	–	–	–	–	–
Cc1cc(Nc2nc(Sc3ccc(NC(=O)CN4C[C@H](OC(C)(C)C(F)(F)F)[C@@H](O)C4)cc3)nn3cccc23)n[nH]1	27 nM	–	6 nM	9 nM	4 nM	–	–	–	–	–	–	–
Cc1cc(Nc2nc(Sc3ccc(NC(=O)CN4C[C@H](Oc5ccccc5F)[C@@H](O)C4)cc3)nn3cccc23)n[nH]1	28 nM	–	10 nM	4 nM	9 nM	–	–	–	–	–	–	–
Cc1cc(Nc2nc(Sc3ccc(NC(=O)CN4C[C@H](O)[C@@H](F)C4)cc3)nn3cccc23)n[nH]1	47 nM	–	5 nM	33 nM	1 nM	–	–	–	–	–	–	–
Cc1cc(Nc2nc(Sc3ccc(NC(=O)CN4C[C@@H](F)C[C@H]4CO)cc3)nn3cccc23)n[nH]1	28 nM	–	8 nM	25 nM	4 nM	–	–	–	–	–	–	–
COCCO[C@H]1CN(CC(=O)Nc2ccc(Sc3nc(Nc4cc(C)[nH]n4)c4cccn4n3)cc2)C[C@@H]1O	49 nM	–	–	25 nM	2 nM	–	–	–	–	–	–	–
Cc1cc(Nc2nc(Sc3ccc(NC(=O)CNC4CCCC4)cc3)nn3cccc23)n[nH]1	655 nM	14 nM	143 nM	365 nM	42 nM	–	–	–	–	–	–	–
Cc1cc(Nc2nc(Sc3ccc(NC(=O)CN4C[C@H](SC(C)(C)C)C[C@H]4CO)cc3)nn3cccc23)n[nH]1	1790 nM	–	111 nM	1610 nM	39 nM	–	–	–	–	–	–	–
